Test results taken from US20210163451A1, “METHODS AND COMPOSITIONS FOR SUBSTITUTED 2,5-DIKETOPIPERAZINE ANALOGS” (University of Florida Research Foundation, Inc., priority 2018, published 2021).
Marks after values point to notes of the source that are not given here.

How the values were obtained:
TxtB = TxtB substrate scope in TxtA/TxtB reactions; format: biochemical, S. scabies 87.22; design: key to TxtB substrate: +++++: Five ‘+’ represents the strong reactivity; ++++: The number of ‘+’ represents the reactivities of the enzymes to the substrate; +++: The number of ‘+’ represents the reactivities of the enzymes to the substrate; ++: The number of ‘+’ represents the reactivities of the enzymes to the substrate; +: one represent very weak reactivities
Experimental: Using the above strategy, it was determined that TxtB accepted only I-Trp among all 20 natural amino acids in the reaction (FIG. 2B, Table 1). When incubating with 15 I-Trp analogs with various substituents at α-position or C4, C5, C6 and C7 of I-Trp indole (Table 1), TxtB was able to use 4-F, 4-Me, 5-F, and 6-F-tryptophan as substrates in the DKP synthesis (Table 1). […] Indeed, the Micklefield group recently produced several thaxtomin analogs with C4-H, F, Cl, Br, or Me when expressing txtA/B in S. albus. The advanced understanding of substrate scopes of TxtA/B led to enzymatic creation of a library of 30 DKPs with 5 I-Trp analogs and 6 I-Phe analogs (FIG. 3C). The production of all DKPs were confirmed in HPLC analysis and verified in high resolution LC-MS analysis (Table 2).
(§1) TxtA/B reaction: 100 mM Tris-Cl (PH=8.0), 0.5 mM Nitro-L-tryptophan or L-tryptophan, 0.55 mM L-Phenylalanine, 3.2 μM txtA, 14.5 μM txtB, 2.5 mM ATP and 2 mM SAM in 100 μL reaction. 21° C. shaken with 400 rpm for 20 hours.
To probe the basis of chemical diversity of Thx DKP scaffold, next characterized was the substrate scopes of TxtA and TxtB. […] Bulkier aryl substituents decreased enzyme activity. […] From the modelled structure of TxtA adenylation (A) domain (FIG. 23), it was identified that Trp225 likely controls the binding of bulky L-Phe analogues. Indeed, the TxtA W225S mutant [Kries, H. et al. Angew. Chem. Int. Ed. Engl. […] We confirmed the product as p-azido-Thx D by HRMS, MS/MS, 1D and 2D NMR analysis (FIGS. 24-25). The substrate preference of TxtB was then assessed. […] Additionally, TxtB utilized 4F-L-, 5F-L-, 4Me-D,L- and 6F-D,L-Trp out of 15 L-Trp analogues carrying various substituents (Table 7) as substrates to synthesize desnitro dimethylated DKP analogues (FIG. 22). […] The tolerance to small modifications on L-Trp indole by TxtB agreed with a recent in vivo study by the Micklefield group [Winn, M. et al. Angew. Chem. Int. Ed. Engl. 2018 57:6830-6833]. […] Chem. Biol. 2018 14: 428-430].
(§2) The TxtA/B reaction solutions (100 μl) typically contained 100 mM Tris-Cl, pH 9.0, 0.5 mM amino acid substrates, 10 mM MgCl2, 2.5 mM ATP and 2 mM SAM. The reactions were initiated by adding 1.2 μM TxtA and 1.3 μM TxtB (final concentration) and incubated at 21° C. with shaking at 400 rpm. After 30 h, the reactions were terminated by mixing with 200 μl of methanol. Quenched solutions were centrifuged at 4° C., 16,000×g for 15 min and clear supernatants were collected and subjected to HPLC and LCMS analysis as detailed below. All experiments were repeated independently at least twice. The reaction solutions of TB14 and TxtA and TxtB were the same as those of TxtA and TxtB except the inclusion of 1.5 mM NAPDH, 0.75 mM NOC-5 and 11.1 μM TB14. The reactions were run for 30 h and the products were analyzed and quantitated as described above.

radish seedlings = experiment: Herbicidal activity in radish seedling assay; format: in vivo; conditions: total seedling length after 7 days on agar, 0 to 2 μM, mean±SD (n=4)
Experimental: Established protocols were followed to quantitate thaxtomin herbicidal activity in radish seedling assay (Jiang, G. et al. Appl Environ Microbiol 2018 84:e00164-18). In brief, serial concentrations (0 to 2 μM) of thaxtomins in DMSO were added into 20 mL of 1.5% warm agar solution with gentle agitation to prepare agar plates. DMSO was included as the negative control. Radish seeds (Burpee) were surface disinfested, pregerminated and selected when the radicle was […] and just emerged from the seed coat. Six radish seedlings were equally located on the surface of each plate with root ends pointed to the same direction. Agar plates were covered, sealed with Parafilm. Seedlings in agar plates grew at room temperature under 14-16 h fluorescent light per day for 7 days, and total seedling lengths were then recorded. The longest and the shorted seedlings would be excluded from the data analysis. Percent inhibition relative to the mean growth response in negative control was then calculated. Dose-response curves were fit to a four-parameter logistic model, and I50 values were determined from these curves.

TxtA-W225S = TxtA-W225S mutant substrate scope in TxtA/TxtB reactions; format: biochemical, S. scabies 87.22; conditions: for substrate preference of TxtAW225S mutant: Example 1; for TxtA-W225S substrate: Table 1, Example 1; for TxtAW225S substrate: Table 7, Example 2
Experimental: The nitro group of thaxtomins is essential for herbicidal activity, and is installed by TxtE. […] NADPH, NOC-5 as NO donor and SAM were included in the reaction. […] To further expand the substrate scope of TxtA, Trp225 was mutated into Ser in TxtA.
as §1
(§3) TB14 and txtA/B coupling reaction: 100 mM Tris-Cl (PH=8.0), 0.5 mM L-tryptophan, 0.55 mM L-Phenylalanine, 1.5 mM NAPDH, 0.75 mM NOC-5, 3.2 μM txtA, 14.5 μM txtB, 2.5 mM ATP, 2 mM SAM and 11.1 μM TB14 in 100 μL reaction. Opened to air, 21° C. shaken with 400 rpm for 30 hours.
(§4) To probe the basis of chemical diversity of Thx DKP scaffold, next characterized was the substrate scopes of TxtA and TxtB. […] Chem. Int. Ed. Engl. […] The substrate preference of TxtB was then assessed. […] Chem. Int. Ed. Engl. 2018 57:6830-6833]. […] Chem. Biol. 2018 14: 428-430].
as §2

TxtA = TxtA substrate scope in TxtA/TxtB reactions; format: biochemical, S. scabies 87.22
Experimental: To explore whether TxtA/B are versatile to generate a library of thaxtomin D analogs, enzymes' substrate tolerance was then examined in the reactions. […] Subsequently, the substrate scope of TxtA with 17 I-Phe analogs was assessed with various substituents at α-position or C2, C3, and C4 of the aryl group (Table 1).
as §1, §3, §4, §2

[1] = test system: TB14, TCB14, TxtA and TxtB; experiment: Conversion to thaxtomin A analogues in the reactions of TB14, TCB14, TxtA and TxtB; format: biochemical; conditions: thaxtomin A analogue product from the listed L-Phe and L-Trp analogues
TB14, TxtA and TxtB = experiment: Conversion to nitro-DKPs in the reactions of TB14, TxtA and TxtB; format: biochemical; conditions: nitro-DKP product from the listed L-Phe and L-Trp analogues
[2] = Example 2, reaction of TB14, TxtA and TxtB
[3] = Example 1, TxtA/B reaction with 4-NO2-L-Trp as TxtB substrate

N[C@@H](Cc1c[nH]c2ccccc12)C(=O)O [L-tryptophan]
TxtB activity, times less active than 4-NO2-L-Trp (TxtB; Example 2, reaction without TB14): 12 times | TxtB substrate (TxtB; Table 1, Example 1): + | TxtB substrate (TxtB; Table 7, Example 2): +

Cc1ccc(C[C@@]2(O)C(=O)N(C)[C@@H](Cc3c[nH]c4cccc([N+](=O)[O-])c34)C(=O)N2C)cc1O [4′Me-Thx A, 4′Me-thaxtomin A]
IC50 (radish seedlings; Raphanus sativus, 168 h): 0.41 ± 0.01 µM

N[C@@H](Cc1ccc(O)cc1)C(=O)O [L-tyrosine]
substrate preference of TxtAW225S mutant (TxtA-W225S): lower activity | TxtA-W225S substrate (TxtA-W225S): ++

[N-]=[N+]=Nc1ccc(C[C@H](N)C(=O)O)cc1 [4-Azidophenylalanine]
relative activity of TxtA toward substrate, relative to L-Phe (TxtA; [2]): did not accept | substrate preference of TxtAW225S mutant (TxtA-W225S): strong preference | substrate preference of TxtA W225S mutant (TxtA-W225S; Example 2, reaction with TB14, TxtA and TxtB): strong preference over L-Phe | TxtA-W225S substrate (TxtA-W225S): ++ | TxtAW225S substrate (TxtA-W225S): ++

Cc1cccc2[nH]cc(CC3C(=O)N(C)C(Cc4ccccc4)C(=O)N3C)c12 (centres unmarked) [desnitro-4Me-Thx D]
IC50 (radish seedlings): 1.98 ± 0.02 µM

Cc1cccc(C[C@H](N)C(=O)O)c1 [3Me-L-phenylalanine]
relative activity of TxtA toward substrate, relative to L-Phe (TxtA; [3]): about 12% | relative activity of TxtA toward substrate, relative to L-Phe (TxtA; [2]): about 27% | TxtA substrate (TxtA; Table 1, Example 1): ++ | TxtA substrate (TxtA; Table 7, Example 2): ++

N[C@@H](Cc1cccc(F)c1)C(=O)O [3F-L-phenylalanine]
relative activity of TxtA toward substrate, relative to L-Phe (TxtA; [3]): same level of activity | relative activity of TxtA toward substrate, relative to L-Phe (TxtA; [2]): equally active | TxtA substrate (TxtA; Table 1, Example 1): +++++ | TxtA substrate (TxtA; Table 7, Example 2): +++++

Cc1ccccc1C[C@H](N)C(=O)O [2Me-L-phenylalanine]
TxtA substrate (TxtA; Table 1, Example 1): +++ | TxtA substrate (TxtA; Table 7, Example 2): ++

NC(Cc1c[nH]c2cc(F)ccc12)C(=O)O (racemic) [6F-Tryptophan, 6F-D,L-tryptophan]
TxtB substrate (TxtB; Table 1, Example 1): ++ | TxtB substrate (TxtB; Table 7, Example 2): +

N[C@@H](Cc1c[nH]c2cccc([N+](=O)[O-])c12)C(=O)O [4-nitro-L-Tryptophan]
TxtB substrate (TxtB; Table 1, Example 1): +++++ | TxtB substrate (TxtB; Table 7, Example 2): +++++

N[C@@H](Cc1ccc(Br)cc1)C(=O)O [4Br-L-phenylalanine]
TxtA substrate (TxtA; Table 1, Example 1): + | TxtA substrate (TxtA; Table 7, Example 2): +

N[C@@H](Cc1cccc(Cl)c1)C(=O)O [3Cl-L-phenylalanine]
TxtA substrate (TxtA; Table 1, Example 1): ++ | TxtA substrate (TxtA; Table 7, Example 2): +

CN1C(=O)[C@](O)(Cc2cccc(O)c2)N(C)C(=O)[C@@H]1Cc1c[nH]c2cccc([N+](=O)[O-])c12 [Compound 1, thaxtomin A, reference compound]
IC50 (radish seedlings): 0.39 ± 0.03 µM | Conversion rate % [1]: 6.84%

Cc1ccc(C[C@H]2C(=O)N(C)[C@@H](Cc3c[nH]c4cccc([N+](=O)[O-])c34)C(=O)N2C)cc1 [4′Me-Thx D, 4′Me-thaxtomin D]
IC50 (radish seedlings; Raphanus sativus, 168 h): 0.48 ± 0.04 µM

N[C@@H](Cc1c[nH]c2ccc(F)cc12)C(=O)O [5F-Tryptophan, 5F-L-tryptophan]
TxtB substrate (TxtB; Table 1, Example 1): ++ | TxtB substrate (TxtB; Table 7, Example 2): ++

N[C@@H](Cc1cccc(Br)c1)C(=O)O [3Br-L-phenylalanine]
TxtA substrate (TxtA; Table 1, Example 1): + | TxtA substrate (TxtA; Table 7, Example 2): +

N[C@@H](Cc1ccc(Cl)cc1)C(=O)O [4Cl-L-phenylalanine]
TxtA substrate (TxtA; Table 1, Example 1): ++ | TxtA substrate (TxtA; Table 7, Example 2): +

CN1C(=O)[C@H](Cc2c[nH]c3cccc([N+](=O)[O-])c23)N(C)C(=O)[C@@H]1Cc1ccc(N=[N+]=[N-])cc1 [compound 42]
Conversion rate % (TxtA-W225S; catalyzed by TxtB and TxtAW225S (with TB14)): 20.90%

Cc1ccc(C[C@@]2(O)C(=O)N(C)[C@@H](Cc3c[nH]c4cccc([N+](=O)[O-])c34)C(=O)N2C)cc1O [compound 118]
Conversion rate % [1]: 3.98%

N[C@@H](Cc1ccccc1)C(=O)O [L-phenylalanine]
TxtA substrate (TxtA; Table 1, Example 1): +++++^a | TxtA substrate (TxtA; Table 7, Example 2): +++++ | TxtA-W225S substrate (TxtA-W225S): + | TxtAW225S substrate (TxtA-W225S): +

CN1C(=O)[C@H](Cc2c[nH]c3cccc([N+](=O)[O-])c23)N(C)C(=O)[C@@H]1Cc1ccc(N=[N+]=[N-])cc1 [p-N3-Thx D, p-N3-thaxtomin D]
IC50 (radish seedlings; Raphanus sativus, 168 h): 1.29 ± 0.21 µM

N[C@@H](Cc1c[nH]c2cccc(F)c12)C(=O)O [4F--Tryptophan, 4F-L-tryptophan]
TxtB substrate (TxtB; Table 1, Example 1): + | TxtB substrate (TxtB; Table 7, Example 2): +

N[C@@H](Cc1ccccc1Br)C(=O)O [2Br-L-phenylalanine]
TxtA substrate (TxtA; Table 1, Example 1): + | TxtA substrate (TxtA; Table 7, Example 2): +

N[C@@H](Cc1ccccc1F)C(=O)O [2F-L-phenylalanine]
relative activity of TxtA toward substrate, relative to L-Phe (TxtA; [3]): same level of activity | relative activity of TxtA toward substrate, relative to L-Phe (TxtA; [2]): ~73% | TxtA substrate (TxtA; Table 1, Example 1): ++++ | TxtA substrate (TxtA; Table 7, Example 2): ++++

Cc1cccc2[nH]cc(CC(N)C(=O)O)c12 (racemic) [4Me-D,L-Tryptophan]
TxtB substrate (TxtB; Table 1, Example 1): ++ | TxtB substrate (TxtB; Table 7, Example 2): +++

Cc1ccc(C[C@H](N)C(=O)O)cc1 [4Me-L-phenylalanine]
TxtA substrate (TxtA; Table 1, Example 1): +++ | TxtA substrate (TxtA; Table 7, Example 2): +

Cc1ccc(C[C@H]2C(=O)N(C)[C@@H](Cc3c[nH]c4cccc([N+](=O)[O-])c34)C(=O)N2C)cc1 [compound 54]
Conversion rate % (TB14, TxtA and TxtB): 15.69%

N[C@@H](Cc1ccc(F)cc1)C(=O)O [4F-L-phenylalanine]
relative activity of TxtA toward substrate, relative to L-Phe (TxtA; [3]): ~72% | TxtA substrate (TxtA; Table 1, Example 1): +++ | TxtA substrate (TxtA; Table 7, Example 2): ++
